Columns and labels:
Assay type in all cases: cell-based
Sh-IR = details: isomer that blocks Sh-IR
[1] = system: endogenous K+ channels in dissociated hippocampal neurons; details: 20 μM extracellular treatment, Iss at +40 mV, n = 10
[2] = system: voltage-gated Na+ channels expressed in GH3 cells; experiment: Photosensitization of voltage-gated Na+ channels expressed in GH3 cells
[3] = system: voltage-gated Ca2+ channels expressed in GH3 cells; experiment: Photosensitization of voltage-gated Ca2+ channels expressed in GH3 cells

CC[N+](CC)(CC)CC(=O)Nc1ccc(/N=N/c2ccc(NC(=O)c3ccccc3)cc2)cc1 [Compound 7, Benzoyl-Azo-QA]
Active Isomer (Sh-IR): trans
% of Iss blocked (380 vs 500 nm) [1]: 35.5% ± 4.7
photosensitization of voltage-gated Na+ channels [2]: did not photosensitize
photosensitization of voltage-gated Ca2+ channels [3]: did not photosensitize

C=CC(=O)Nc1ccc(N=Nc2ccc(NC(=O)C[N+](CC)(CC)CC)cc2)cc1 [Compound 1]
Active Isomer (Sh-IR): trans

Propyl-Azo-QA [Compound 10]
Active Isomer (Sh-IR): preferentially blocks in the cis form
